# Experimental data as given in patent US20240181081A1, “Compositions and Methods for Treatment of Myotonic Dystrophy Type 1 with CRISPR/SACAS9” (Vertex Pharmaceuticals Incorporated, priority 2021, published 2024).
# Assays:
# [1] = test system: CTG repeat expansion in the 3′ UTR of human DMPK gene; experiment: DOUBLE-cut screening: CTG repeat excision by loss-of-signal ddPCR in primary DM1 patient myoblasts; type: cell-based; conditions: sgRNA pair RNP, mean of upstream and downstream ddPCR assays; for % of CTG repeat excision efficiency by ddPCR (DNA-PKi): 3 μM Compound 6 for 48 hrs; for % of CTG repeat excision efficiency by ddPCR (Vehicle): DMSO 48 hrs
# Procedure: (§1) RNPs were assembled with recombinant SaCas9 protein (Aldevron) and chemically modified sgRNAs (Synthego) at a ratio of 1:3 (protein:sgRNA). For SINGLE-cut screening, RNP complexes were assembled with 30 pmol of SaCas9 and 90 pmol of sgRNA in P5 Primary Cell Nucleofector Solution (Lonza). After incubation at room temperature for 20 minutes, 10 μL of RNP complex was mixed with two hundred thousand primary myoblasts resuspended in 10 μL of P5 Nucleofector Solution. For DOUBLE-cut screening, RNP complexes were first assembled for individual sgRNAs with 20 pmol of SaCas9 protein and 60 pmol of sgRNAs in 5 μL of P5 Nucleofector Solution. After incubation at room temperature for 20 minutes, the two RNP complexes (one for upstream sgRNA and one for downstream sgRNA) were mixed at 1:1 ratio and then further mixed with two hundred thousand primary myoblasts resuspended in 10 μL of P5 Nucleofector Solution.
# (§2) The Nucleofector 96-well Shuttle System (Lonza) was used to deliver the SaCa9/sgRNA RNPs into primary DM1 patient myoblasts using the nucleofection program CM138. Following nucleofection, myoblasts from each well of nucleofection shuttle were split into six wells of the 96-well cell culture plate (Greiner, 655090) coated with matrigel. The first three wells were treated with DMSO for 48 hrs before changing to fresh myoblast growth medium, and the other three wells were treated with 3 μM of DNA-PKi Compound 6 for 48 hrs before changing to fresh myoblast growth medium. 72 hrs post nucleofection, two wells of DMSO-treated myoblasts and two wells of DNA-PKi-treated myoblasts from each nucleofection were harvested for genomic DNA extraction using the Kingfisher Flex purification system (Thermal Fisher), whereas one well of DMSO-treated myoblasts and one well of DNA-PKi-treated myoblasts were stained for RNA foci by FISH staining.
# The primers and probes of ddPCR were designed using the online primer design software Primer3Plus (http://www.bioinformatics.nl/cgi-bin/primer3plus/primer3plus.cgi). The two Target primers/probe sets were used to detect CTG repeat excision, and the Reference primers/probe set was used to amplify a region located in Exon 1 of human DMPK gene and it served as a reference control for the Target sets. The 24 μL of ddPCR reaction consisted of 12 μL of Supermix for Probes (no dUTP) (Bio-Rad Laboratories), 1 μL of Reference primers mix (21.6 μM), 1 μL of Reference probe (6 μM), 1 μL of Target primers mix (21.6 μM), 1 μL of Target probe (6 μM), and 8 μL of sample genomic DNA. Droplets were generated using probe oil with the QX200 Droplet Generator (Bio-Rad Laboratories). Droplets were transferred to a 96-well PCR plate, sealed and cycled in a C1000 deep well Thermocycler (Bio-Rad Laboratories) under the following cycling protocol: 1 cycle at 95° C. for 10 min; 40 cycles of 94° C. for 30 sec, and 58° C. for 1 min; 1 cycle at 98° C. for 10 min (for enzyme inactivation). The cycled plate was then transferred and read in the FAM and HEX channels using the Bio-Rad QX200 Droplet Reader (Bio-Rad Laboratories). ddPCR analysis was performed with the Bio-Rad QuantaSoft Pro Software.
# Next, DOUBLE-cut screening was performed to assess the efficiency of paired sgRNAs-induced CTG repeat excision and RNA foci reduction. 90 SaCas9 sgRNA pairs formed by one upstream sgRNA and one downstream sgRNA were assembled with recombinant SaCas9 protein into RNP complex and nucleofected into primary DM1 patient myoblasts. Nucleofected myoblasts were treated with either DMSO (vehicle) or 3 μM of Compound 6 (DNA-PKi) for 48 hrs. 72 hrs post nucleofection, myoblasts were subjected to either genomic DNA isolation or RNA foci staining.
# One upstream and one downstream loss-of-signal droplet digital PCR (ddPCR) assays were used to determine the efficiency of CTG repeat excision. ddPCR signals would be abolished upon excision of the CTG repeat expansion in these loss-of-signal ddPCR assays. […]
# [2] = test system: CUG RNA foci in primary DM1 patient myoblasts; experiment: DOUBLE-cut screening: FISH staining of RNA foci in primary DM1 patient myoblasts; type: cell-based, human; conditions: sgRNA pair RNP, 72 hrs post nucleofection; for % of CUG foci free nuclei (DNA-PKi): 3 μM Compound 6 for 48 hrs; for % of CUG foci free nuclei (Vehicle): DMSO 48 hrs
# Procedure: as §1, §2
# Primary myoblasts were fixed for 15 min with 4% paraformaldehyde (PFA) and washed five times with 1×PBS for 10 min each at room temperature. Before staining, cells were permeabilized with 0.5% triton X-100 in 1×PBS for 5 min at room temperature, and then washed with 30% formamide and 2× saline-sodium citrate (SSC) mixture for 10 min at room temperature. Cells were then stained with 1 ng/μL of Cy3-PNA(CAG) 5 probe (PNA Bio, F5001) diluted in 30% formamide, 2×SSC, 2 μg/mL BSA, 66 μg/mL yeast tRNA, and 2 mM vanadyl complex for 15 min at 80° C. Following probe staining, cells were then washed in 30% formamide and 2×SSC mixture for 30 min at 42° C., then washed in 30% formamide and 2×SSC mixture for 30 min at 37° C., and then washed in 1×SSC solution for 10 min at room temperature, and finally washed in 1×PBS for 10 min at room temperature. Cells were next stained with anti-MBNL1 antibody (Santa Cruz, 3A4) diluted in 1% bovine serum albumin (BSA) for overnight at 4° C., and washed twice with 1×PBS for 10 min each at room temperature. Cells were then incubated with the secondary antibody goat […] Alexa 647 (Thermo Fisher, A32728) diluted in 1% BSA for 1 hr at room temperature, and washed twice with 1×PBS for 10 min each at room temperature. Next, cells were stained with Hoechst solution (Thermo Fisher, H3569) at 0.1 mg/ml for 5 min, and washed once with 1×PBS for 5 min. PBS was aspirated and fresh 100 μl of fresh PBS was added to each well. High-throughput acquisition of images was completed with the ImageXpress Micro Confocal High-Content Imaging System (Molecular Devices). RNA foci quantifications were accomplished with a customized analysis module of the MetaXpress program (Molecular Devices).
# Next, DOUBLE-cut screening was performed to assess the efficiency of paired sgRNAs-induced CTG repeat excision and RNA foci reduction. 90 SaCas9 sgRNA pairs formed by one upstream sgRNA and one downstream sgRNA were assembled with recombinant SaCas9 protein into RNP complex and nucleofected into primary DM1 patient myoblasts. […]
Substance,% of CTG repeat excision efficiency by ddPCR (DNA-PKi) [1],% of CTG repeat excision efficiency by ddPCR (Vehicle) [1],% of CUG foci free nuclei (DNA-PKi) [2],% of CUG foci free nuclei (Vehicle) [2]
"SaU1 + SaD15: SaCas9 sgRNA pair, SEQ ID NOs: 1 and 23 (guide 1 GCCCCGGAGTCGAAGACAGTTC; guide 2 GACAATAAATACCGAGGAATGT; listed as DNA, chemistry not fully specified)",64.96%,37.54%,85.70%,72.80%
"SaU1 + SaD17: SaCas9 sgRNA pair, SEQ ID NOs: 1 and 25 (guide 1 GCCCCGGAGTCGAAGACAGTTC; guide 2 TTTATTCGCGAGGGTCGGGGGT; listed as DNA, chemistry not fully specified)",53.66%,26.29%,75.32%,45.51%
"SaU1 + SaD18: SaCas9 sgRNA pair, SEQ ID NOs: 1 and 26 (guide 1 GCCCCGGAGTCGAAGACAGTTC; guide 2 GGGCCTTTTATTCGCGAGGGTC; listed as DNA, chemistry not fully specified)",47.64%,19.40%,69.94%,29.85%
"SaU1 + SaD19: SaCas9 sgRNA pair, SEQ ID NOs: 1 and 27 (guide 1 GCCCCGGAGTCGAAGACAGTTC; guide 2 AGGACCCCCACCCCCGACCCTC; listed as DNA, chemistry not fully specified)",52.62%,32.74%,76.49%,49.44%
"SaU1 + SaD20: SaCas9 sgRNA pair, SEQ ID NOs: 1 and 28 (guide 1 GCCCCGGAGTCGAAGACAGTTC; guide 2 AGATGGAGGGCCTTTTATTCGC; listed as DNA, chemistry not fully specified)",61.37%,39.94%,83.73%,69.61%
"SaU2 + SaD2: SaCas9 sgRNA pair, SEQ ID NOs: 2 and 10 (guide 1 ACTCAGTCTTCCAACGGGGCCC; guide 2 TCGGCCAGGCTGAGGCCCTGAC; listed as DNA, chemistry not fully specified)",56.39%,52.26%,83.29%,81.76%
"SaU2 + SaD3: SaCas9 sgRNA pair, SEQ ID NOs: 2 and 11 (guide 1 ACTCAGTCTTCCAACGGGGCCC; guide 2 CAACGATAGGTGGGGGTGCGTG; listed as DNA, chemistry not fully specified)",56.04%,36.75%,80.14%,55.11%
"SaU2 + SaD5: SaCas9 sgRNA pair, SEQ ID NOs: 2 and 13 (guide 1 ACTCAGTCTTCCAACGGGGCCC; guide 2 GGGTTTGGCAAAAGCAAATTTC; listed as DNA, chemistry not fully specified)",59.19%,38.64%,83.71%,75.82%
"SaU2 + SaD6: SaCas9 sgRNA pair, SEQ ID NOs: 2 and 14 (guide 1 ACTCAGTCTTCCAACGGGGCCC; guide 2 CTTTTGCCAAACCCGCTTTTTC; listed as DNA, chemistry not fully specified)",45.77%,24.88%,65.23%,31.53%
"SaU2 + SaD7: SaCas9 sgRNA pair, SEQ ID NOs: 2 and 15 (guide 1 ACTCAGTCTTCCAACGGGGCCC; guide 2 GGGGCGCGGGATCCCCGAAAAA; listed as DNA, chemistry not fully specified)",52.12%,29.62%,76.74%,49.05%
"SaU2 + SaD10: SaCas9 sgRNA pair, SEQ ID NOs: 2 and 18 (guide 1 ACTCAGTCTTCCAACGGGGCCC; guide 2 TTGGGGGTCCTGTAGCCTGTCA; listed as DNA, chemistry not fully specified)",66.52%,38.02%,82.97%,75.56%
"SaU2 + SaD11: SaCas9 sgRNA pair, SEQ ID NOs: 2 and 19 (guide 1 ACTCAGTCTTCCAACGGGGCCC; guide 2 CAAAACGTGGATTGGGGTTGTT; listed as DNA, chemistry not fully specified)",52.97%,26.90%,73.23%,48.38%
